Consider five compounds from patent publication US6689789B2, “Compounds useful for inhibition of farnesyl protein transferase” (Schering Corporation, priority 1997, dated 2004).

The target of this assay is farnesyl protein transferase (Homo sapiens, UniProt P49356). The assay can be described thus: FPT IC50, inhibition of farnesyl protein transferase, in vitro enzyme assay. In kind it is biochemical. The settings on record: procedure of WO 95/10516. How it is done: FPT IC50 (inhibition of farnesyl protein transferase, in vitro enzyme assay) and COS Cell IC50 (Cell-Based Assay) were determined following the assay procedures described in WO 95/10516, published Apr. 20, 1995. GGPT IC50 (inhibition of geranylgeranyl protein transferase, in vitro enzyme assay), Cell Mat Assay, and anti-tumor activity (in vivo anti-tumor studies) could be determined by the assay procedures described in WO 95/10516. The disclosure of WO 95/10516 is incorporated herein by reference thereto.

One may read the IC50 as the point on the concentration scale where inhibition reaches its midpoint. The low end stands for inhibition by little substance, the high end for a need for much substance.

`O=C(Cc1cc[n+]([O-])cc1)N1CCC(C2(O)c3ncc(Br)cc3CCc3cc(Cl)cc(Br)c32)CC1` (centres unmarked) [Example #1 Step C, 4-(3,10-dibromo-8-chloro-6,11-dihydro-11-hydroxy-5H-benzo[5,6]cyclohepta[1,2-b]pyridin-11-yl)-1-(4-pyridinylacetyl)piperidine N1-oxide] registered an IC50 of under 2 nM. As to `CC(C)(C)OC(=O)N1CCC(CC(=O)N2CCC(C3(O)c4ncc(Br)cc4CCc4cc(Cl)cc(Br)c43)CC2)CC1` (centres unmarked) [Example #2 Step A, 4-(3,10-dibromo-8-chloro-6,11-dihydro-11-hydroxy-5H-benzo[5,6]cyclohepta[1,2-b]pyridin-11-yl)-1-(N-BOC-4-piperdinylacetyl)piperidine], the IC50 stood at 42 nM. In the case of `O=C(CC1CCNCC1)N1CCC(C2(O)c3ncc(Br)cc3CCc3cc(Cl)cc(Br)c32)CC1` (centres unmarked) [Example #2 Step B, 4-[2-[4-(3,10-dibromo-8-chloro-6,11-dihydro-11-hydroxy-5H-benzo[5,6]-cyclohepta[1,2-b]pyridin-11-yl)-1-piperdinyl]-2-oxoethyl]-1-piperidine] it was 12.5 nM; in that of `NC(=O)N1CCC(CC(=O)N2CCC(C3(O)c4ncc(Br)cc4CCc4cc(Cl)cc(Br)c43)CC2)CC1` (centres unmarked) [Example #2 Step C, 4-[2-[4-(3,10-dibromo-8-chloro-6,11-dihydro-11-hydroxy-5H-benzo[5,6]cyclohepta[1,2-b]pyridin-11-yl)-1-piperdinyl]-2-oxoethyl]-1-piperidinecarboxamide], 10.8 nM.

Regarding `NC(=O)CN1CCC(CC(=O)N2CCC(C3(O)c4ncc(Br)cc4CCc4cc(Cl)cc(Br)c43)CC2)CC1` (centres unmarked) [compound 3, 4-[2-[4-(3,10-dibromo-8-chloro-6,11-dihydro-11-hydroxy-5H-benzo[5,6]cyclohepta-[1,2-B]pyridin-11-yl)-1-piperidinyl]-2-oxoethyl]-1-piperidineacetamide], half-maximal inhibition (IC50) required 8.7 nM.
